In general, solubility refers to the concentration that dissolves in the medium under given conditions.

What all share (type): physicochemical
The nature of series [1]: Hygroscopicity test by Dynamic Vapour Sorption (DVS). The note with it: RH modifications up to 90% at 25° C. The source says:
The water uptake of crystalline NMS-E354 salts and free base was investigated by submitting a sample of such substances to a hygroscopicity test by means of a DVS 1000 (SMS). The apparatus is a “controlled atmosphere microbalance” where the weighed sample is exposed to programmed variations of the relative humidity (RH) at a constant and controlled temperature. The measured parameters (weight, time and RH), reported in Excel worksheets, allow obtaining hygroscopicity curves over the tested RH range. Sorption/desorption cycles between 0% and 90% RH can be performed at controlled temperature of 25° C. Progressive variations of RH can be of 10% and 3%; they are operated by the software at the equilibration of the sample weight. This condition can be defined at a constant rate of percent weight variation e.g. 0.005%/min.

Series [2] is described as follows: Solubility of crystalline NMS-E354 salts and free base in 0.9% NaCl solution. The note with it: for Aqueous solubility value: stirred 4 hours at RT, excess solid (target 10 mg/ml), filtered, HPLC. The protocol: The determination of solubility of NMS-E354 salts has been performed by means of the following procedure: known amounts of crystalline NMS-E354 salts or free base stirred for 4 hours at RT in 0.9% NaCl solution, in condition of excess solid considering a target concentration of 10 mg/ml. The obtained preparations were filtered and analysed by means of HPLC.

Series [3] in a line: Solubility of NMS-E354 free base in water and early formulation vehicles. As for the experimental part:
The solubility of the NMS-E354 free base is about 4 mg/ml in 10% Polysorbate 80 in 5% dextrose solution, about 7 mg/ml in aqueous 50% Polyethylene Glycol 400 in 5% dextrose solution and about 1÷2 mg/ml when formulated as hydrochloride or phosphate in situ salt. NMS-E354 free base was also suitable for aqueous hypromellose suspensions at about 10 mg/ml. Therefore, the obtained free base was initially formulated as cosolvent based aqueous solution, in situ salt or hypromellose suspension in order to allow administration during early pharmacological and toxicological evaluation for early pharmacological studies.

≈ marks a conversion by molar mass, not a printed value. Where a name gives a salt, the structure may show the parent alone. Read-outs that look alike come from different tables or passages of the source.

Regarding `NC(=O)c1cc(-c2ccnc(N)n2)[nH]c1-c1ccc(Cl)cc1Cl` [Hemifumarate salt, 5-(2-amino-pyrimidin-4-yl)-2-(2,4-dichloro-phenyl)-1H-pyrrole-3-carboxylic acid amide], the hygroscopicity result in series [1] is on record as “low hygroscopicity”. In addition, the Aqueous solubility value in series [2] is 0.02 mg/mL.

On to `NC(=O)c1cc(-c2ccnc(N)n2)[nH]c1-c1ccc(Cl)cc1Cl` [Maleate salt, 5-(2-amino-pyrimidin-4-yl)-2-(2,4-dichloro-phenyl)-1H-pyrrole-3-carboxylic acid amide], for which, in series [1], the hygroscopicity result is listed as “low hygroscopicity”. Further, in series [2], the “solubility in 0.9% NaCl solution” value turned out to be 0.07 mg/mL and the Aqueous solubility value worked out at 0.07 mg/mL.

Consider `NC(=O)c1cc(-c2ccnc(N)n2)[nH]c1-c1ccc(Cl)cc1Cl` [Mesylate salt, 5-(2-amino-pyrimidin-4-yl)-2-(2,4-dichloro-phenyl)-1H-pyrrole-3-carboxylic acid amide], for which the hygroscopicity entry in series [1] is “low hygroscopicity”. Further, the Aqueous solubility value in series [2] was 0.12 mg/mL.

As for `NC(=O)c1cc(-c2ccnc(N)n2)[nH]c1-c1ccc(Cl)cc1Cl` [NMS-E354, 5-(2-amino-pyrimidin-4-yl)-2-(2,4-dichloro-phenyl)-1H-pyrrole-3-carboxylic acid amide], the solubility was ~4000 µg/mL (≈ 11.5 mM) in series [3] (10% Polysorbate 80 in 5% dextrose solution, aqueous with cosolvent or surfactant or cyclodextrin, read-out: solubility); ~7000 µg/mL (≈ 20.1 mM) in series [3] (aqueous 50% Polyethylene Glycol 400 in 5% dextrose solution, aqueous with cosolvent or surfactant or cyclodextrin, read-out: solubility); 1000 to 2000 µg/mL in series [3] (hydrochloride or phosphate in situ salt formulation, formulated as hydrochloride or phosphate in situ salt, read-out: solubility); < 10 µg/mL in series [3] (water, read-out: aqueous solubility). Further, the hygroscopicity result in series [1] is recorded as “low hygroscopicity”. Further, the Aqueous solubility value in series [2] (listed as Free base) is reported as <0.01 mg/mL.

On to `NC(=O)c1cc(-c2ccnc(N)n2)[nH]c1-c1ccc(Cl)cc1Cl` [Sulfate salt, 5-(2-amino-pyrimidin-4-yl)-2-(2,4-dichloro-phenyl)-1H-pyrrole-3-carboxylic acid amide], for which the hygroscopicity entry in series [1] is “low hygroscopicity”. Also, in series [2], the “solubility in 0.9% NaCl solution” value is 0.15 mg/mL and the Aqueous solubility value worked out at 0.15 mg/mL.
